Source: US8268803B2, “5, 6-ring annulated indole derivatives and use thereof” (Merck Sharp & Dohme Corp., priority 2006, dated 2012)
pEC50, pIC50: −log10 of the molar value.

Assays:
[1] = system: HCV replicon cells (replicon RNA level); experiment: Cell-Based HCV Replicon Assay; conditions: Hepatitis C virus, 72 h; replicon RNA level by real time PCR (Taqman), cells harvested on day 3
Method: To measure cell-based anti-HCV activity of the a Compound of Formula (I), replicon cells were seeded at 5000 cells/well in 96-well collagen I-coated Nunc plates in the presence of the Compound of Formula (I). Various concentrations of a Compound of Formula (I), typically in 10 serial 2-fold dilutions, were added to the assay mixture, with the starting concentration ranging from 250 μM to 1 μM. The final concentration of DMSO was 0.5%, fetal bovine serum was 5%, in the assay media. Cells were harvested on day 3 by the addition of 1× cell lysis buffer (Ambion cat #8721). The replicon RNA level was measured using real time PCR (Taqman assay). The amplicon was located in 5B. The PCR primers were: 5B.2F, ATGGACAGGCGCCCTGA (SEQ ID NO: 2); 5B.2R, […] (SEQ ID NO: 3); the probe sequence was FAM-labeled CACGCCATGCGCTGCGG (SEQ ID NO: 4). GAPDH RNA was used as endogenous control and was amplified in the same reaction as NS5B (multiplex PCR) using primers and VIC-labeled probe recommended by the manufacturer (PE Applied Biosystem). The real-time RT-PCR reactions were run on ABI PRISM 7900HT Sequence Detection System using the following program: 48° C. for 30 min, 95° C. for 10 min, 40 cycles of 95° C. for 15 sec, 60° C. for 1 min. The ΔCT values (CT5B-CTGAPDH) were plotted against the concentration of test compound and fitted to the sigmoid dose-response model using XLfit4 (MDL). EC50 was defined as the concentration of inhibitor necessary to achieve ΔCT=1 over the projected baseline; EC90 the concentration necessary to achieve ΔCT=3.2 over the baseline. Alternatively, to quantitate the absolute amount of replicon RNA, a standard curve was established by including serially diluted T7 transcripts of replicon RNA in the Taqman assay. All Taqman reagents were from PE Applied Biosystems. Such an assay procedure was described in detail in e.g. Malcolm et al., Antimicrobial Agents and Chemotherapy 50: 1013-1020 (2006).
HCV Replicon assay data for selected Compounds of Formula (I) is provided below in Table 3, wherein the compound numbers correspond to the compound numbering set forth in the above specification. The data is designated as follows: “A” for EC50 values less than 1.0 micromolar (μM), “B” for EC50 values between 1.0 and 5.0 μM and “C” for EC50 values greater than 5.0 μM.

[2] = biological target: T1, HCV NS5B polymerase (NS5BΔCT21, from HCV-Con 1 isolate, genotype 1b) (Hepatitis C virus genotype 1b, UniProt Q9WMX2); experiment: HCV NS5B Polymerase Inhibition Assay; format: biochemical; conditions: incorporation of radiolabeled CTP, 22° C. for 2 hours
T1 construct: A soluble C-terminal 21-amino acid truncated NS5B enzyme form; polyhistidine (C); made in house; host or cells: Escherichia coli
Source text: A chemically synthesized 75-mer version, designated DCoH75, whose sequence matches the 3′-end of D-RNA, and DCoH75ddC, where the 3′-terminal cytidine of DCoH75 is replaced by dideoxycytidine, were used for assaying the NS5B enzyme activity as described in Ferrari et al., 12th International Symposium on HCV and Related Viruses, P-306 (2005). The sequence of the template RNA was: 5′-UGUGCCGGUCUUUCUGAACGGGAUAUAAACCUGGCCAGCUUCAUCGAACAAGUUGCCGUGUCUAUGACAUAGAUC-3′ (SEQ ID NO: 1). A soluble C-terminal 21-amino acid truncated NS5B enzyme form (NS5BΔCT21, from HCV-Con 1 isolate, genotype 1b, Genbank accession number AJ238799) was produced and purified from Escherichia coli as C-terminal polyhistidine-tagged fusion protein as described in Ferrari et al., J. Virol. 73:1649-1654 (1999). A typical assay contained 20 mM Hepes pH 7.3, 10 mM MgCl2, 60 mM NaCl, 100 μg/ml BSA, 20 units/ml RNasin, 7.5 mM DTT, 0.1 μm ATP/GTP/UTP, 0.026 μM CTP, 0.25 mM GAU, 0.03 μM RNA template, 20 μCi/ml [^33P]-CTP, 2% DMSO, and 30 or 150 nM NS5B enzyme. Reactions were incubated at 22° C. for 2 hours, then stopped by adding 150 mM EDTA, washed in DE81 filter plate in 0.5M di-basic sodium phosphate buffer, pH 7.0, and counted using Packard TopCount after the addition of scintillation cocktail. Polynucleotide synthesis was monitored by the incorporation of radiolabeled CTP. The effect of the Compounds of Formula (I) on the polymerase activity was evaluated by adding various concentrations of a Compound of Formula (I), typically in 10 serial 2-fold dilutions, to the assay mixture. The starting concentrations ranged from 200 μM to 1 μM. An IC50 value for the inhibitor, defined as the compound concentration that provides 50% inhibition of polymerase activity, was determined by fitting the cpm data to the Hill equation Y=100/(1+10^((Log IC50−X)*HillSlope)), where X is the logarithm of compound concentration, and Y is the % inhibition. Ferrari et al., 12th International Symposium on HCV and Related Viruses, P-306 (2005) described in detail this assay procedure. It should be noted that such an assay as described is exemplary and not intended to limit the scope of the invention. The skilled practitioner can appreciate that modifications including but not limited to RNA template, primer, nucleotides, NS5B polymerase form, buffer composition, can be made to develop similar assays that yield the same result for the efficacy of the compounds and compositions described in the invention.
NS5B polymerase inhibition data for selected Compounds of Formula (I) is provided below in Table 2, wherein the compound numbers correspond to the compound numbering set forth in the above specification.

| Compound | pEC50 [1] | pIC50 [2] |
| --- | --- | --- |
| CS(=O)(=O)NC(=O)c1c(-c2ccc[nH]c2=O)c2cc3c(cc2n1Cc1ccc(F)cc1F)CCC3 [Compound 5] | 5.30 to 6.00 | 7.00 to 7.60 |
| CS(=O)(=O)NC(=O)c1c(-c2ccc[nH]c2=O)c2cc3c(cc2n1Cc1ccccc1O)CCC3 [Compound 4] | 5.30 to 6.00 | 7.00 to 7.60 |
| CS(=O)(=O)NC(=O)c1c(-c2ccc[nH]c2=O)c2cc3c(cc2n1Cc1cccc(O)c1)CCC3 [Compound 6] | 5.30 to 6.00 | 7.00 to 7.60 |
| O=C(O)c1c(-c2ccc[nH]c2=O)c2cc3c(cc2n1Cc1cc(F)ccc1F)CCC3 [Compound 3] | 5.30 to 6.00 | > 7.60 |
| CS(=O)(=O)NC(=O)c1c(-c2ccc[nH]c2=O)c2cc3scnc3cc2n1Cc1ccnc(N)c1 [Compound 12] | < 5.30 | < 7.00 |
| CS(=O)(=O)NC(=O)c1c(-c2ccc[nH]c2=O)c2cc3c(cc2n1Cc1cccc(OCc2ccccc2)c1)CCC3 [Compound 10] |  | < 7.00 |
| CS(=O)(=O)NC(=O)c1c(-c2ccc[nH]c2=O)c2cc3c(cc2n1Cc1ccc(OCc2ccccc2)cc1)CCC3 [Compound 8] | < 5.30 | < 7.00 |
| Nc1cc(Cn2c(C(=O)O)c(-c3ccc[nH]c3=O)c3cc4scnc4cc32)ccn1 [Compound 11] |  | < 7.00 |
| CS(=O)(=O)NC(=O)c1c(-c2ccc[nH]c2=O)c2cc3c(cc2n1Cc1ccc(O)cc1)CCC3 [Compound 2] | 5.30 to 6.00 | > 7.60 |
| CS(=O)(=O)NC(=O)c1c(-c2ccc[nH]c2=O)c2cc3c(cc2n1Cc1cc(F)ccc1F)CCC3 [Compound 1] | > 6.00 | > 7.60 |
| CS(=O)(=O)NC(=O)c1c(-c2ccc[nH]c2=O)c2cc3c(cc2n1Cc1ccccc1OCc1ccccc1)CCC3 [Compound 9] | < 5.30 | < 7.00 |
